Where two headings read alike, the source gives them in different places.
Assays:
SARS-CoV virus = assay type: cell-based; conditions: for CPE / Protective ratio of the infected cells: Vero-E6 cells infected with SARS-CoV; for Protective ratio of the infected cells: >1.5 times judged active

For `CN(C)CCCSc1ccccc1NC(=O)C=Cc1ccccc1` [cinanserin, 2′-(3-dimethylaminopropylthio)cinnamanilide], the “Cytotoxicity of the sample” value (Vero-E6 cell) was “—* (key: *: if the cytotoxicity of the sample is >50% when comparing with the cell control, CPE isn't evaluated, and the protective ratio isn't calculated)”, the CPE (SARS-CoV virus; 4 ug/mL) was “+ (<25% +)” and the “Protective ratio of the infected cells” value (SARS-CoV virus; 4 ug/mL) was 3.69 times. The CPE (SARS-CoV virus; 20 ug/mL) was “+ (<25% +)”, the “Protective ratio of the infected cells” value (SARS-CoV virus; 20 ug/mL) was 3.85 times and the “protective activity of inhibiting SARS-CoV from infecting Vero-E6 cell” value (SARS-CoV virus; result in words) was “evident protective activity”.

From patent US7662860B2 (priority 2003, dated 2010)
